# Read-outs that look alike come from different tables or passages of the source. Peptide text beside a SMILES is read from it.
# Legend:
# [1] = Solubility in water; assay type: physicochemical; details: based on our own results
# [2] = for concentration prepared and stabilized using the lipid microparticle formulation: pH 7
# Procedure: The tube was vortexed briefly. • c. The sample was placed in an ice-ethanol bath to maintain a temperature of approximately 4° C. • d. The tip of a probe sonicator was placed just above the bottom of the microcentrifuge tube. It was confirmed that the sonicator tip was not touching the sides or the bottom of the tube. • e. The sample was sonicated for 2 h at setting 10 on a 25% duty cycle with a period of 20 sec, producing an average power output of 22 watts. • f. The ice-ethanol bath was changed every 12 min to maintain temperature. • g. […] The solution was centrifuged for 4 min at 12,000 rpm to remove any metal particulates left by the probe tip. • i. 1 ml of the LMP was transferred to a clean 1.5 microcentrifuge tube.
# Polyphenols are a group of chemical substances found in plants, characterized by the presence of more than one phenol group per molecule. The term comprises tannins, lignins and flavonoids. […] Myricetin (C15H10O8, MW 318.24) is a naturally occurring flavonoid found in many food sources known to have antioxidant and anti-inflammatory properties. […] Despite its therapeutic potential, myricetin has very limited water solubility. […] In an effort to increase the solubility of myricetin to enhance its therapeutic potential, myricetin was incorporated into lipid microparticles as follows: • j. 1 mg myricetin was added to the tube and vortexed to combine. […] The myricetin mixture was again placed over the ice-ethanol bath and fitted with the probe sonicator. • l. The mixture was sonicated on the same settings for 2.5 h, again replacing the ice-ethanol bath every 12-15 min. • m. […] The solution was centrifuged again for 5 min at 12,000 rpm to remove any metal particulates. • o. The solution was then titrated to pH 7 with 1 M NaOH.
# In an effort to increase solubility, Vitamin E was incorporated into lipid LMP as follows: • j. 5 uL (4.65 mg) of vitamin E was added to the tube and vortexed to combine. • k. The Vitamin E mixture was placed over the ice-ethanol bath again and fitted with the probe sonicator. • l. The mixture was sonicated on the same settings for 2.5 h, again replacing the ice-ethanol bath every 12-15 min. • m. […] The solution was centrifuged again for 4 min at 12,000 rpm to remove any metal particulates. • o. The solution was then titrated to pH 7 with 1 M NaOH.
# In an effort to increase the solubility of Leu-Leu-Leu to enhance it's therapeutic potential, Leu-Leu-Leu was incorporated into lipid microparticles as follows: • j. 8 mg Leu-Leu-Leu was added to the tube and vortexed to combine. […] The Leu-Leu-Leu mixture was again placed over the ice-ethanol bath and fitted with the probe sonicator. • l. The mixture was sonicated on the same settings for 2.5 h, again replacing the ice-ethanol bath every 12-15 min. • m. […] The solution was centrifuged again for 5 min at 12,000 rpm to remove any metal particulates. • o. The solution was then titrated to pH 7 with 1 M NaOH.
# [3] = cited from earlier work
# [4] = Solubility of GDF-5 in organic solvents (RP-HPLC of supernatant after centrifugation); assay type: physicochemical; details: dichlormethane, acetonitrile and DMSO solutions, centrifuged
# Text: The inventors of the present application have proceeded with an extensive investigation in order to overcome the above described problems. […] Hydrophobic drugs are very often highly soluble in the volatile organic solvents. […] After adding GDF-5, dichlormethane, acetonitrile and DMSO solutions were centrifuged and the GDF-5 content of the supernatant was checked with RP-HPLC.
# After adding GDF-5, solutions were centrifuged and the GDF-5 content of supernatant was checked with RP-HPLC.
# [5] = cited from earlier work; remark: listed apart in the source
# [6] = rat, in vivo
# Procedure: Rats were anesthetized with sodium pentobarbital (50 mg/kg intraperitoneal), and given additional doses as needed. Rats were placed on their back, and body temperature was maintained with a heating pad (rectal thermal probe set at 37° C.). Prior to onset of drug delivery, the descending aorta was cannulated for all experimental groups.
# GDF-5 Administration: GDF-5 was ^125I labelled and formulated in 20 mM sodium acetate buffer at a pH of 4.25. For intranasal administration, a mixture of ^125I-GDF-5 and unlabeled GDF-5 was delivered as 10 μL drops alternating nares every two minutes with an average total volume of 113 μL (7.0 nmol and 38 pCi). A second formulation of GDF-5 for intranasal delivery was prepared in 200 mM sodium acetate buffer at pH 4.0 and delivered as an average total volume of 91 μL (5.2 nmol, 28 uCi). For intravenous administration, a mixture of ^125I-GDF-5 and unlabeled GDF-5 was delivered as an injection into the tail vein. […]
# Measurement of ^125I-labelled GDF-5 with gamma counting: Peripheral and CNS rat tissues were dissected into anatomical areas. […] The concentration of GDF-5 in each tissue sample (nM) was calculated using the counts per minute, tissue weight, and specific activity measurements from standard samples of the GDF-5 mixture delivered.
# [7] = tested on: cultured midbrain neurons; details: cited from earlier work
compound,measurement,setting,value
CC(C)C[C@H](NC(=O)[C@H](CC(C)C)NC(=O)[C@@H](N)CC(C)C)C(=O)O [Leu-Leu-Leu] (H-Leu-Leu-Leu-OH; N-terminus and C-terminus assumed),solubility,[1],~2500 µg/mL
same,increase of aqueous solubility at neutral pH using the LMP formulation,[2],over three-fold
same,concentration prepared and stabilized using the lipid microparticle formulation,[2],8000 µg/mL
O=c1c(O)c(-c2cc(O)c(O)c(O)c2)oc2cc(O)cc(O)c12 [myricetin],solubility,[1],65 µg/mL
same,increase of aqueous solubility at neutral pH using the LMP formulation,[2],15.4 fold
same,concentration prepared and stabilized using the lipid microparticle formulation,[2]; 2.5 h,1000 µg/mL
Vitamin E,increase of aqueous solubility at neutral pH using the LMP formulation,[2],increased greatly
same,concentration prepared and stabilized using the lipid microparticle formulation,[2],4650 µg/mL
beta amyloid 1-42,solubility in aqueous solution,[3]; pH 3,very soluble
same,solubility in aqueous solution,[3]; pH 7,essentially insoluble
same,solubility in aqueous solution,"[3]; physiological pH, e.g., pH 7.4",very low solubility
growth and differentiation factor-5 [GDF-5],retrieval percentage of GDF-5 in supernatant,[4],below 15%
same,pH threshold for solubility,[5]; aqueous solutions of GDF-5,4.3
same,pH above which the protein starts precipitating,"[5]; aqueous solutions, profile shown in EP 1 462 126",above 4.25
same,"blood exposure, intravenous relative to intranasal",[6],twice as great
same,"midbrain concentration, intravenous relative to intranasal",[6],less than half
same,concentration at which neuroprotective effects have been demonstrated,[7],1 nM
